The values that follow come from US20220395582A1, “COMPOSITIONS AND METHODS OF INDUCING DIFFERENTIATION OF A HAIR CELL” (Akouos, Inc., priority 2018, published 2022).

Data set [1] deals with HEK293FT cells. In words: Destabilizing domain (DD) functionality and reversibility, TMP dose response by fluorescence microscopy. The format is cell-based. The note with it: TMP 0.1, 1, 10, 20 and 100 μM, FIG. 8A. How it is done: FIG. 8A is a dose response curve showing the functionality and reversibility of the destabilizing domain (DD) using fluorescence microscopy. Serial dilutions of TMP (0.1 μM, 1 μM, 10 μM, 20 μM and 100 μM) were tested in the mScarlet and mScarlet-DD transfected HEK293FT cells.
(§1) HEK293FT cells were transfected with mScarlet and mScarlet-DD vectors (FIGS. 7A-7B). The data in FIGS. 8A and 8B show the functionality and reversibility of the destabilizing domain (DD) using fluorescence microscopy and flow cytometry, respectively.

Data set [2] concerns HEK293FT cells. In words: mScarlet positive HEK293FT cells with AAVanc80 vector at various MOIs, with or without TMP. The format is cell-based. The following applies: 10 μM TMP added later, FIGS. 9A and 9B. How it is done: FIG. 9B is an image showing mScarlet positive HEK293FT cells transfected with AAVanc80 vector at various MOIs. 10 μM TMP was added at a later time point.
as §1

The subject of data set [3] is hair cells and supporting cells in cochlear explants. In words: mScarlet positive hair cells and supporting cells in cochlear explants infected with AAVanc80, with and without TMP. The following applies: with and without 10 uM TMP, FIG. 10. The format is cell-based, mouse. As to the method: FIG. 9A is an image showing mScarlet positive cells in a P1-P3 mouse cochlea explant transfected with AAVanc80 vector at various MOIs. 10 μM TMP was added at a later time point.
FIG. 10 is an image showing mScarlet positive hair cells and supporting cells in a cochlear explants infected with AAVanc80 with and without 10 uM TMP that was added at a later time point.
as §1

For data set [4], the system named is ATOH1, POU4F3, and GFI1. In words: Relative quantification of ATOH1, POU4F3 and GFI1 RNA in HEK293FT cells transfected with individual plasmids. The format is cell-based. The following applies: FIG. 6A. An excerpt:
FIG. 6A is a bar graph showing the relative quantification of ATOH1, POU4F3, and GFI1 (APG) RN in HEK293FT cells transfected with the individual plasmids of FIGS. 4A-C.
The data in FIGS. 6A and 6B show overexpression of ATOH1, POU4F3 and GFI-1 in HEK293FT cells that were transfected with the vectors of FIGS. 4A-4D.

As for “mScarlet-DD: nucleic acid vector with ITR, CMV promoter, mScarlet, destabilizing domain (DD) and bGHpA sequences”, in data set [1], the “percentage of mScarlet positive cells” value is reported as “increased proportionately with increasing concentration of TMP”. Also, the mScarlet expression result in data set [2] is given as “primarily seen in mScarlet-DD transfected cells in the presence of TMP”. In addition, the “mScarlet expression in cochlear explants” value in data set [3] is recorded as “only seen in the presence of TMP”.
For the molecule “POU4F3: nucleic acid vector with CMV promoter, human POU4F3 gene, 3×Flag, T2A, mScarlet and destabilizing domain”, the “ATOH1 and GFI-1 mRNA levels on overexpression of POU4F3” value in data set [4] is “increase in ATOH1 and GFI-1 mRNA levels”.

B1: mScarlet: nucleic acid vector with ITR, CMV promoter, mScarlet and bGHpA sequences (nucleic acid)
DNA: CCTGCAGGCAGCTGCGCGCTCGCTCGCTCACTGAGGCCGCCCGGGCGTCGGGCGACCTTTGGTCGCCCGGCCTCAGTGAGCGAGCGAGCGCGCAGAGAGGGAGTGGCCAACTCCATCACTAGGGGTTCCTGTGATGCGGTTTTGGCAGTACATCAATGGGCGTGGATAGCGGTTTGACTCACGGGGATTTCCAAGTCTCCACCCCATTGACGTCAATGGGAGTTTGTTTTGGCACCAAAATCAACGGGACTTTCCAAAATGTCGTAACAACTCCGCCCCATTGACGCAAATGGGCGGTAGGCGTGTACGGTGGGAGGTCTATATAAGCAGAGCTCGTTTAGTGAACCGTCAGATCGCCTGGAGACGCGTGAGCAAGGGCGAGGCAGTGATCAAGGAGTTCATGCGGTTCAAGGTGCACATGGAGGGCTCCATGAACGGCCACGAGTTCGAGATCGAGGGCGAGGGCGAGGGCCGCCCCTACGAGGGCACCCAGACCGCCAAGCTGAAGGTGACCAAGGGTGGCCCCCTGCCCTTCTCCTGGGACATCCTGTCCCCTCAGTTCATGTACGGCTCCAGGGCCTTCATCAAGCACCCCGCCGACATCCCCGACTACTATAAGCAGTCCTTCCCCGAGGGCTTCAAGTGGGAGCGCGTGATGAACTTCGAGGACGGCGGCGCCGTGACCGTGACCCAGGACACCTCCCTGGAGGACGGCACCCTGATCTACAAGGTGAAGCTCCGCGGCACCAACTTCCCTCCTGACGGCCCCGTAATGCAGAAGAAGACAATGGGCTGGGAAGCGTCCACCGAGCGGTTGTACCCCGAGGACGGCGTGCTGAAGGGCGACATTAAGATGGCCCTGCGCCTGAAGGACGGCGGCCGCTACCTGGCGGACTTCAAGACCACCTACAAGGCCAAGAAGCCCGTGCAGATGCCCGGCGCCTACAACGTCGACCGCAAGTTGGACATCACCTCCCACAACGAGGACTACACCGTGGTGGAACAGTACGAACGCTCCGAGGGCCGCCACTCCACCGGCGGCATGGACGAGCTGTACAAGTAAGCTGATCAGCCTCGACTGTGCCTTCTAGTTGCCAGCCATCTGTTGTTTGCCCCTCCCCCGTGCCTTCCTTGACCCTGGAAGGTGCCACTCCCACTGTCCTTTCCTAATAAAATGAGGAAATTGCATCGCATTGTCTGAGTAGGTGTCATTCTATTCTGGGGGGTGGGGTGGGGCAGGACAGCAAGGGGGAGGATTGGGAAGACAATAGCAGGCATGCTGGGGATGCGGTGGGCTCTATGGAGGAACCCCTAGTGATGGAGTTGGCCACTCCCTCTCTGCGCGCTCGCTCGCTCACTGAGGCCGGGCGACCAAAGGTCGCCCGACGCCCGGGCTTTGCCCGGGCGGCCTCAGTGAGCGAGCGAGCGCGCAGCTGCCTGCAGG
modifications: pITR-CMV-mScarlet-bGHpA
Take B1: the “percentage of mScarlet positive cells” value in data set [1] is reported as “remained constant regardless of TMP concentration”. Besides, the mScarlet expression result in data set [2] is recorded as “seen in all HEK293FT cells”. The “mScarlet expression in cochlear explants” value in data set [3] was “seen in hair cells and supporting cells”.
